Tests used:
P. aeruginosa = conditions: cited from earlier work
IL-1 = IL-1 levels in lungs after 14 days of inhalation; format: in vivo, rats; conditions: then 28 day recovery evaluation
Excerpt: The explanation for this surprising effect may be that the presence of free ciprofloxacin in the lung attenuates the release of cytokines which attract macrophages into the lung.

Row | Compound | activity against P. aeruginosa (P. aeruginosa) | levels of IL-1 (IL-1)
1 | CC[C@H]1OC(=O)[C@H](C)[C@@H](O[C@H]2C[C@@](C)(OC)[C@@H](O)[C@H](C)O2)[C@H](C)[C@@H](O[C@@H]2O[C@H](C)C[C@H](N(C)C)[C@H]2O)[C@](C)(O)C[C@@H](C)CN(C)[C@H](C)[C@@H](O)[C@]1(C)O [azithromycin] | no direct activity | –
2 | O=C(O)c1cn(C2CC2)c2cc(N3CCNCC3)c(F)cc2c1=O [free ciprofloxacin, ciprofloxacin] | – | return to baseline values
3 | NC[C@H]1O[C@H](O[C@H]2[C@H](O)[C@@H](O[C@H]3O[C@H](CO)[C@@H](O)[C@H](N)[C@H]3O)[C@H](N)C[C@@H]2N)[C@H](N)C[C@@H]1O [tobramycin] | possesses activity | –
